Patent US8492398B2, “Spiroazaindoles” (Merck Sharp & Dohme Corp., priority 2008, dated 2013)

What follows are molecules tested against PHD2 (Homo sapiens, UniProt Q9GZT9) (assay: Assay for HIF-PHD2 catalytic activity (time-resolved fluorescence, VHL complex detection)). Details: FLAG-tagged full length PHD2; 0.2 μM 2-oxoglutarate, 0.5 μM HIF-1α peptide; read-out: PHD2 Activity (PHD2 binding activity expressed as IC50).
Assay type: biochemical
Protocol: Assay for HIF-PHD2 Catalytic Activity
After a 30 min preincubation at room temperature, the enzymatic reactions were initiated by the addition of 4 μL of substrates (final concentrations of 0.2 μM 2-oxoglutarate and 0.5 μM HIF-1α peptide biotinyl-DLDLEMLAPYIPMDDDFQL). After 2 hr at room temperature, the reactions were terminated and signals were developed by the addition of a 25 μL quench/detection mix to a final concentration of 1 mM ortho-phenanthroline, 0.1 mM EDTA, 0.5 nM anti-(His)6 LANCE reagent (Perkin-Elmer Life Sciences), 100 nM AF647-labeled streptavidin (Invitrogen), and 2 μg/ml (His)6-VHL complex (S. Tan (2001) Protein Expr. Purif. 21, 224-234). The ratio of time resolved fluorescence signals at 665 and 620 nm was determined, and percent inhibition was calculated relative to an uninhibited control sample run in parallel.

PHD2, sequence (Q9GZT9 whole entry): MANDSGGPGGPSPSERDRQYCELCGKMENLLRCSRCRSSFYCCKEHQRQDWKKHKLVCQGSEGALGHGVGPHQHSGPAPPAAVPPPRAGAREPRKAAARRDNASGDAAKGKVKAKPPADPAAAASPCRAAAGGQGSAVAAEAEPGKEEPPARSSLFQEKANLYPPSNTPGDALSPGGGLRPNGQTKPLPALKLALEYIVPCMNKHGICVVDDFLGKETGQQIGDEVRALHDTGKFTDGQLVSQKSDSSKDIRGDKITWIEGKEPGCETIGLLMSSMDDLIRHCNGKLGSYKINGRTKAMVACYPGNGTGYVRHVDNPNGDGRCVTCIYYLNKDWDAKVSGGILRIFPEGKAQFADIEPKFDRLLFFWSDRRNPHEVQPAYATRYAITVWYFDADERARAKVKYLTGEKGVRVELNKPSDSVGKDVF

Structure (SMILES)	IC50 [nM]
Cc1cccnc1CN1CCC2(CC1)C(=O)N(c1ccc(-c3ccccc3)cc1)c1ncc(C#N)cc12 [Example 4, 1′-biphenyl-4-yl-1-[(3-methylpyridin-2-yl)methyl]-2′-oxo-1′,2′-dihydrospiro[piperidine-4,3′-pyrrolo[2,3-b]pyridine]-5′-carbonitrile]	5 to 10
O=C(O)CN1CCC2(CC1)C(=O)N(c1ccc(-c3ccccc3)cc1)c1ncc(Br)cc12 [Example 7, (1′-biphenyl-4-yl-5′-bromo-2′-oxo-1′,2′-dihydro-1H-spiro[piperidine-4,3′-pyrrolo[2,3-b]pyridin]-1-yl)acetic acid]	10 to 50
N#Cc1cnc2c(c1)C1(CCN(CC(=O)O)CC1)C(=O)N2c1ccc(-c2ccccc2)cc1 [Example 8, (1′-biphenyl-4-yl-5′-cyano-2′-oxo-1′,2′-dihydro-1H-spiro[piperidine-4,3′-pyrrolo[2,3-b]pyridin]-1-yl)acetic acid]	10 to 50
O=C(O)CN1CCC2(CC1)C(=O)N(c1ccc(-c3ccccc3)cc1)c1ncccc12 [Example 9, (1′-biphenyl-4-yl-2′-oxo-1′,2′-dihydro-1H-spiro[piperidine-4,3′-pyrrolo[2,3-b]pyridin]-1-yl)acetic acid]	10 to 50
O=C(O)CN1CCC2(CC1)C(=O)N(c1ccc(-c3ccccc3)cc1)c1ncc(C(=O)O)cc12 [Example 10, 1′-biphenyl-4-yl-1-(carboxymethyl)-2′-oxo-1′,2′-dihydrospiro[piperidine-4,3′-pyrrolo[2,3-b]pyridine]-5′-carboxylic acid]	5 to 10

Other lines, results leading:

IC50 [nM]	Structure (SMILES)
≤ 5	Cc1cccnc1CN1CCC2(CC1)C(=O)N(c1ccc(-c3ccccc3)cc1)c1nc(C#N)ccc12 [Example 3, 1′-biphenyl-4-yl-1-[(3-methylpyridin-2-yl)methyl]-2′-oxo-1′,2′-dihydrospiro[piperidine-4,3′-pyrrolo[2,3-b]pyridine]-6′-carbonitrile]
≤ 5	Cc1cccnc1CN1CCC2(CC1)C(=O)N(c1ccc(-c3ccccc3)cc1)c1ncc(C(=O)O)cc12 [Example 5, 1′-biphenyl-4-yl-1-[(3-methylpyridin-2-yl)methyl]-2′-oxo-1′,2′-dihydrospiro[piperidine-4,3′-pyrrolo[2,3-b]pyridine]-5′-carboxylic acid]
≤ 5	Cc1cccnc1CN1CCC2(CC1)C(=O)N(c1ccc(-c3ccccc3)cc1)c1nc(C(=O)O)ccc12 [Example 6, 1′-biphenyl-4-yl-1-[(3-methylpyridin-2-yl)methyl]-2′-oxo-1′,2′-dihydrospiro[piperidine-4,3′-pyrrolo[2,3-b]pyridine]-6′-carboxylic acid]
